Assay results: paper PMC9319939, “Siccanin Is a Dual-Target Inhibitor of Plasmodium falciparum Mitochondrial Complex II and Complex III” (Pharmaceuticals, 2022)

Assays:
P. falciparum complex II = P. falciparum complex II (Plasmodium falciparum, UniProt Q8I5S5+Q8IJU2); assay: succinate:ubiquinone reductase (SQR) activity, crude mitochondrial fraction, DCIP reduction; assay type: biochemical; conditions: siccanin 10 μM; read-out: Relative residual activity of SQR
Description: A synchronized parasite culture was grown for 64 h and a crude mitochondrial fraction was prepared from trophozoite-stage cells (as confirmed by Giemsa staining). Infected red blood cells were collected by centrifugation at 800× g for 5 min at 4 °C and incubated for 5 min at room temperature with 40 mL of 0.075% (w/v) saponin in AIM buffer (120 mM KCl, 20 mM NaCl, 10 mM PIPES (1,4-piperazinediethanesulfonic acid) buffer [pH 6.7], 1 mM MgCl2, 5 mM glucose). Released parasites were collected by centrifugation at 2780× g for 7 min at 4 °C and washed three times with AIM buffer. […]
Complex II, DHODH, MQO, NDH2, G3PDH, and dihydroorotate-cytochrome c (DHO-cyt c) reductase activities were measured, as described previously, using a V-660 spectrophotometer (JASCO; Tokyo, Japan). Briefly, complex II activity was measured at 25 °C in a 1 mL reaction mixture containing 45 μM 2,6-dichlorophenolidophenol (DCIP), 100 μM ubiquinone-2 (UQ2), and 2 mM KCN in 50 mM potassium phosphate buffer, pH 8.0. DHODH, MQO, and G3PDH activities were measured at 25 °C in 1 mL of the reaction mixture containing 45 μM DCIP, 100 μM UQ2, and 2 mM KCN in 30 mM Tris-HCl buffer, pH 8.0. […] NDH2 activity was measured at 25 °C in 1 mL of the reaction mixture containing 100 µM UQ1 and 2 mM KCN in 50 mM potassium phosphate buffer, pH 8.0. […]

[1] = test system: Dd2_ELQ300 (cyt b-I22L mutation at Qi site); assay: Growth inhibition of Dd2_ELQ300 (ELQ300-resistant); assay type: cell-based; conditions: Plasmodium falciparum, read-out: Growth inhibition EC50, ELQ300
Description: (§1) P. falciparum 3D7-yDHODH was prepared and maintained as described previously. P. falciparum Dd2, and Dd2-derived mutant strains were kindly provided by David A. Fidock, and maintained at Nagasaki University essentially as described in reference, except without supplementation with WR99210.
(§2) Synchronized ring-form parasites (0.3% parasitemia) were prepared in complete medium containing different concentration of various compounds (at a fixed final DMSO concentration of 0.1% (v/v)) and distributed to 96-well plates at 100 μL/well. After 72 h of incubation, parasite growth was monitored by the previously described lactate dehydrogenase (PfLDH)-based assay method; plates were read using a SpectraMax® Paradigm spectrophotometer (Molecular Devices, Inc.; San Jose, CA, USA). EC50 values were calculated using Prism® ver.6.01 (GraphPad; San Diego, CA, USA). Values are presented as the means of three independent experiments.

Δsdha-3D7 P. falciparum = assay: Drug sensitivity assay, 72 h, PfLDH-based, sdha-disrupted strain; assay type: cell-based; conditions: Plasmodium falciparum, 3D7, read-out: Growth IC50, Δsdha-3D7
Description: The P. falciparum 3D7 strain was cultured, as described previously, in 3% hematocrit type A human red blood cells (RBCs) in RPMI1640 medium (Invitrogen; San Diego, CA, USA) supplemented with 25 mM sodium hydrogen biocarbonate, 10 μg/mL hypoxanthine, 40 μg/mL gentamicin sulfate, and 0.5% (w/v) Albumax II (Invitrogen) (“complete medium”). Cultures were maintained in a MG-70M multi-gas incubator (Taitec) under the conditions of 5% O2, 5% CO2, and 90% N2 at 37 °C. The medium was replaced daily. Parasitemia was measured by thin blood smears stained with Giemsa. In our previous study, we generated mutant P. falciparum strains expressing either disrupted or full-length versions of the flavoprotein (Fp) subunit (encoded by the Pfsdha gene). […]
as §2, with “Values are presented as the means of three independent experiments.” left out

[2] = test system: Dd2 and drug-resistant panel strains; assay: Growth inhibition across Dd2 and drug-resistant panel strains; assay type: cell-based; conditions: Plasmodium falciparum, DD2, read-out: EC50s for growth inhibition, range over strains
Description: as §1, §2

[3] = test system: T. mentagrophytes complex II; design: method as in PMID 4250609; conditions: ref [31]; read-out: IC50, T. mentagrophytes enzyme; cited from earlier work
[4] = test system: Dd2_048 (PI4K-S743T mutation); assay: Growth inhibition of Dd2_048 (MMV390048-resistant); assay type: cell-based; conditions: Plasmodium falciparum, read-out: Growth inhibition EC50, 048
Description: as §1, §2

[5] = test system: P. falciparum complex III; assay: DHO-cytochrome c reductase activity (DHODH coupled to complex III); assay type: biochemical; conditions: ratio mammalian / P. falciparum IC50
Description: (§3) A synchronized parasite culture was grown for 64 h and a crude mitochondrial fraction was prepared from trophozoite-stage cells (as confirmed by Giemsa staining). Infected red blood cells were collected by centrifugation at 800× g for 5 min at 4 °C and incubated for 5 min at room temperature with 40 mL of 0.075% (w/v) saponin in AIM buffer (120 mM KCl, 20 mM NaCl, 10 mM PIPES (1,4-piperazinediethanesulfonic acid) buffer [pH 6.7], 1 mM MgCl2, 5 mM glucose). Released parasites were collected by centrifugation at 2780× g for 7 min at 4 °C and washed three times with AIM buffer. P. falciparum was suspended in MSE buffer [225 mM mannitol, 75 mM sucrose, 0.1 mM ethylenediaminetetraacetic acid (EDTA), 3 mM Tris-HCl buffer, pH 7.4] containing 1 mM phenylmethylsulphonyl fluoride, and disrupted by nitrogen cavitation at 1200 psi using a 4639 Cell Disruption Bomb (Parr Instrument Company; Moline, IL, USA). The unbroken cells and cell debris were removed by centrifugation at 800× g for 5 min at 4 °C. The supernatant was centrifuged at 5000× g for 20 min at 4 °C. The resulting pellet was suspended in 200–400 μL MSE buffer and used as crude mitochondrial fraction for all enzymatic assays, as described previously.
(§4) DHO-cyt c activity was measured at 25 °C in 1 mL of the reaction mixture containing 20 μM cytochrome c and 2 mM KCN in 30 mM Tris-HCl buffer, pH 8.0. The reduction of cytochrome c was monitored at 550 nm after initiation of the reaction by addition of 500 μM dihydroorotate. Various concentrations of siccanin (formulated in DMSO) were added to the reaction mixtures before the initiation of the reactions. In all assays, the final concentration of DMSO was fixed at 0.1% (v/v). IC50 values were calculated using Prism® ver.6.01.

[6] = target: T1, P. falciparum complex III (Plasmodium falciparum, UniProt Q02768); assay: as above; assay type: biochemical
T1 construct: used as crude mitochondrial fraction for all enzymatic assays; endogenous in cells; host or cells: P. falciparum 3D7 trophozoite-stage parasites, crude mitochondrial fraction
T1 sequence (Q02768 whole entry, one chain of several): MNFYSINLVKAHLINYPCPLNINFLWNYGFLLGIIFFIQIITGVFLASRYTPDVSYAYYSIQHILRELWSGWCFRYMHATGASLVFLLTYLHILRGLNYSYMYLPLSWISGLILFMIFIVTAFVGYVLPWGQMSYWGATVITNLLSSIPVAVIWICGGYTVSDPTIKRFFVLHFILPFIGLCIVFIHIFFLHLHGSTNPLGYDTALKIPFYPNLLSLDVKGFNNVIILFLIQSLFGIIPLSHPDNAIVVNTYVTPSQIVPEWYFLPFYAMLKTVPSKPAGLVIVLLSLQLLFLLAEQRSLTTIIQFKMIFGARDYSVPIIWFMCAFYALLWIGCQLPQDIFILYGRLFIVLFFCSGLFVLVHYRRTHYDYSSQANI
Description: as §3, §4

Chain of P. falciparum complex II (Q8IJ66 entry or part of it): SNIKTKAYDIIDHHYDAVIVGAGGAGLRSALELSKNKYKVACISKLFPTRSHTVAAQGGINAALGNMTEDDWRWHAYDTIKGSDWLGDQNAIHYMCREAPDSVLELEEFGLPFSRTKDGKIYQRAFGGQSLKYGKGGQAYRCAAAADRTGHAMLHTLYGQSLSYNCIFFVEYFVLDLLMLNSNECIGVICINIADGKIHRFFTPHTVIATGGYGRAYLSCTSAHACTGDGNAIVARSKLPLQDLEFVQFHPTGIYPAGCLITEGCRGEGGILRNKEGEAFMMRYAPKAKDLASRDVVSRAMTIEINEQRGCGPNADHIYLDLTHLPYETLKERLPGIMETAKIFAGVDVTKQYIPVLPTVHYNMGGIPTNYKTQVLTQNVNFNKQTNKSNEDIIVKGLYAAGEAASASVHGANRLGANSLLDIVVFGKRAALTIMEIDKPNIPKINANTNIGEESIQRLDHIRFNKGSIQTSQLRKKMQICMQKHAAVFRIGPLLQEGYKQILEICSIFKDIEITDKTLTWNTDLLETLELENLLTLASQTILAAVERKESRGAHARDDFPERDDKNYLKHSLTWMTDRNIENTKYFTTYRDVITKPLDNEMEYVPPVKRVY
Chain of P. falciparum complex II (Q8IJU2 entry or part of it): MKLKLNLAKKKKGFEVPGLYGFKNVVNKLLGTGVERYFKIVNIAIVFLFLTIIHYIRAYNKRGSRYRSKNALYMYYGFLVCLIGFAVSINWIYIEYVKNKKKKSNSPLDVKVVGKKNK
Chain of P. falciparum complex II (Q8I5S5 entry or part of it): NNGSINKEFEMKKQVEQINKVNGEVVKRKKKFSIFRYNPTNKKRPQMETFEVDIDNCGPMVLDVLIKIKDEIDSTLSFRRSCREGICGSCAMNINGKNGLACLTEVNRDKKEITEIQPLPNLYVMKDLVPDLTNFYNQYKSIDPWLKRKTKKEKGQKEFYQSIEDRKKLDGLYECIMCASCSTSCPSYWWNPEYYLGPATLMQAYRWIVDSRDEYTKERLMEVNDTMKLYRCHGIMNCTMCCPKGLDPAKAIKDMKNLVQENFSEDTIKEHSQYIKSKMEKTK

Cc1cc(O)c2c(c1)O[C@@]1(C)CC[C@H]3C(C)(C)CCC[C@]34CO[C@@H]2[C@H]41 [Siccanin]
remaining activity at 10 µM (P. falciparum complex II): 2.7 ± 6.5%
EC50 [1]: 18.7 µM
IC50 (Δsdha-3D7 P. falciparum): 6.13 ± 0.91 µM
EC50 [2]: 12.4 to 18.7 µM
IC50 [3]: ~0.09 µM
EC50 [4]: 13.5 µM
Selectivity, Complex III [5]: >60
Effect on DHO-cyt c activity ([6]; 60 μM): completely inhibits
IC50 ([6]; P. falciparum crude mitochondrial fraction, read-out: Complex III (DHO-cyt c activity) IC50): 8.39 µM
